Test results as given in PMC9317966, “Structure-function analysis of the AMPK activator SC4 and identification of a potent pan AMPK activator” (Biochemical Journal, 2022).

What was measured:
[1] = molecular target: T1, human GST-AMPK α2β2γ3 (Homo sapiens, UniProt O43741+P54646); experiment: Radiolabel SAMS kinase assay, immobilised GST-AMPK; assay type: biochemical; details: 1 µM compound
T1 construct: triply transfected with full-length AMPK α1 or α2 (NH2-terminal GST fusion, pDEST27 vector); full-length AMPK α1 or α2 (NH2-terminal GST fusion, pDEST27 vector), β1 or β2 (COOH-terminal FLAG fusion, pcDNA3.1 vector); FLAG (C); made in house; host or cells: HEK293T/17 cells, transient triple transfection
T1 sequence (P54646 whole entry, the tested form may be a part): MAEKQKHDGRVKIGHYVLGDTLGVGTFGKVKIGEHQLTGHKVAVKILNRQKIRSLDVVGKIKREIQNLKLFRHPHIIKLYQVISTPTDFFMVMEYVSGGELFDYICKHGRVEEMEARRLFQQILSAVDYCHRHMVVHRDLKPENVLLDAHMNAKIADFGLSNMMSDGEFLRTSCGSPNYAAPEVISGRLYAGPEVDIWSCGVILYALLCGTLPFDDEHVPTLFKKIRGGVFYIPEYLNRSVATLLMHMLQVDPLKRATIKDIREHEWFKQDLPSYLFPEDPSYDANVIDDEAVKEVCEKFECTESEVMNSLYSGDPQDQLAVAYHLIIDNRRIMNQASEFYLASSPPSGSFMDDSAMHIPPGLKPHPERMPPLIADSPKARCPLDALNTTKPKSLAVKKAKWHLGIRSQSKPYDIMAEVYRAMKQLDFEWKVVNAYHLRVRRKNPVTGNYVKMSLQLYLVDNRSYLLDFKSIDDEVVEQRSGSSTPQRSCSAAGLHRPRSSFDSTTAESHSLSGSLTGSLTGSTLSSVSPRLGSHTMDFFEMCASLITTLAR
T1 sequence (O43741 whole entry, the tested form may be a part): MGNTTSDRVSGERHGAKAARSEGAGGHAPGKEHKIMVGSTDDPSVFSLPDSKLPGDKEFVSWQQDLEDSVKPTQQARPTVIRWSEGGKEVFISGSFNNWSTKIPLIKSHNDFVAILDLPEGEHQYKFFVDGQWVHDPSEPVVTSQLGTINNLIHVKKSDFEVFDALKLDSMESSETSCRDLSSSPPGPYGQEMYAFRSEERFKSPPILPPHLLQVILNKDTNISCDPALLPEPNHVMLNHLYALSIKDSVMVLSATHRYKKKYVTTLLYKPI
T1 sequence (Q9UGI9 whole entry partner, the tested form may be a part): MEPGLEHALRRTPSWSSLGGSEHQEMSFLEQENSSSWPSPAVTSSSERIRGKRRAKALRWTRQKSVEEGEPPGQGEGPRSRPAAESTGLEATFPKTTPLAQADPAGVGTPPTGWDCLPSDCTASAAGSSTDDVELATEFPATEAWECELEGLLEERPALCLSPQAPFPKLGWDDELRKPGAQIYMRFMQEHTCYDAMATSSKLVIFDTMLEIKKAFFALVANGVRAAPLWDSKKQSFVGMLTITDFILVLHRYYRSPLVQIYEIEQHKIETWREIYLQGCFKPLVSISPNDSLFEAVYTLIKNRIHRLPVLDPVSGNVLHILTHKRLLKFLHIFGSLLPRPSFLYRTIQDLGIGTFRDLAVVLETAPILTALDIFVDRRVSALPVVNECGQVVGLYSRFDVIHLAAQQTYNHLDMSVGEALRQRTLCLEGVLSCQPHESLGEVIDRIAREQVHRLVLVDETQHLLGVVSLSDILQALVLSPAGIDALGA
Source text: (§1) We generated a series of compounds to investigate whether modification of the SC4 2-hydroxybiphenyl LHS fragment affects isoform selectivity, some of which (MSG008-MSG011) are presented in Table 1. We also synthesised compound MSG012 (example I-3-54 [32]), which was reported to activate α2β2γ1 with ∼100-fold greater potency compared with α1β1γ1. MSG012 differs from SC4 by substitution of the 2-hydroxyphenyl LHS fragment with 3-cyclohexen-4-yl-1-carboxylic acid, and 2-methylbenzoic acid RHS fragment with 1-hydroxy-N,N-dimethylcyclohexan-4-yl-1-carboxamide. Our initial screen involved measuring the activity of recombinant human GST-AMPK complexes expressed in HEK293T/17 cells and immobilised on glutathione-Sepharose (Supplementary Figure S1). Enzyme activity was measured by radiolabelling the synthetic SAMS peptide substrate in the absence or presence of 1 µM compound. Consistent with our previous characterisation, SC4 activated α1β1γ1, α2β1γ1 and α2β2γ1 >2.3-fold, and weakly activated α1β2γ1 1.3-fold (Figure 1A). […] The γ isoform had little influence on AMPK activation by MSG011 as most γ2 and γ3 complexes were activated >2.2-fold at 1 µM, with α1β2γ2 being the only exception (1.6-fold activation). […] Accordingly, MSG010, MSG011 and MSG012 can be classified as pan AMPK activators.
(§2) Adherent HEK293T/17 cells at ∼50% confluency were triply transfected with full-length AMPK α1 or α2 (NH2-terminal GST fusion, pDEST27 vector), β1 or β2 (COOH-terminal FLAG fusion, pcDNA3.1 vector), and γ1, γ2 or γ3 (NH2-terminal HA fusion, pMT2 vector) in the presence of FuGENE HD transfection reagent (Promega) as per the manufacturers protocol. Cells were harvested 48 hours post-transfection by first gently washing in ice cold phosphate buffered saline (PBS; Sigma–Aldrich), then scraping in ice cold lysis buffer (50 mM TRIS pH 7.5, 150 mM NaCl, 10% (v/v) glycerol, 50 mM NaF, 5 mM sodium pyrophosphate, 1% (v/v) Triton X-100, cOmplete protease inhibitor cocktail). Lysates were clarified by centrifugation (16 000g, 3 min, 4°C), flash frozen in liquid N2 and stored at −80°C until analysis. For radioactive kinase assays, AMPK was immobilised on glutathione Sepharose 4B resin (GE Healthcare) by incubation with lysates for 1.5 h at 4°C. Following centrifugation (1000g, 3 min, 4°C), the resin was washed twice in purification buffer (50 mM HEPES pH 7.4, 150 mM NaCl, 10% (v/v) glycerol, 0.02% (v/v) Tween-20), once in 50 mM HEPES pH 7.4 with 0.02% (v/v) Tween-20, then resuspended to a 50% slurry with 50 mM HEPES pH 7.4 and 10 µl added to the activity assays. For in solution kinase assays, α1β1γ1 AMPK was eluted from glutathione-Sepharose by incubating with purification buffer supplemented with 40 mM reduced glutathione (Sigma–Aldrich).
(§3) AMPK activity was determined by phosphorylation of the SAMS peptide (Purar Chemicals, sequence: NH2-HMRSAMSGLHLVKRR-COOH) in a 25 µl reaction volume containing 100 µM SAMS peptide, 5 mM MgCl2, 200 µM ATP, [γ-^32P]-ATP (PerkinElmer) and assay buffer (50 mM HEPES pH 7.4, 1 mM DTT and 0.02% (v/v) Tween-20) and purified AMPK. Phosphotransferase activity was conducted at 30°C for 10 min and reactions were quenched by spotting 15 µl onto phosphocellulose ion-exchange chromatography paper (made in-house), followed by repeated washes in 1% H3PO4 (Merck Millipore). Ultima Gold liquid scintillation fluid (5 ml; PerkinElmer) was added to vials containing dried phosphocellulose papers, and the level of ^32P-transfer to the SAMS peptide was determined using a Tri-Carb 2900TR liquid scintillation counter (PerkinElmer).

[2] = molecular target: T2, human GST-AMPK α1β2γ3 (Homo sapiens, UniProt O43741+Q13131); experiment: Radiolabel SAMS kinase assay, immobilised GST-AMPK; assay type: biochemical; details: 1 µM compound
T2 construct: triply transfected with full-length AMPK α1 or α2 (NH2-terminal GST fusion, pDEST27 vector); full-length AMPK α1 or α2 (NH2-terminal GST fusion, pDEST27 vector), β1 or β2 (COOH-terminal FLAG fusion, pcDNA3.1 vector); FLAG (C); made in house; host or cells: HEK293T/17 cells, transient triple transfection
T2 sequence (Q13131 whole entry, the tested form may be a part): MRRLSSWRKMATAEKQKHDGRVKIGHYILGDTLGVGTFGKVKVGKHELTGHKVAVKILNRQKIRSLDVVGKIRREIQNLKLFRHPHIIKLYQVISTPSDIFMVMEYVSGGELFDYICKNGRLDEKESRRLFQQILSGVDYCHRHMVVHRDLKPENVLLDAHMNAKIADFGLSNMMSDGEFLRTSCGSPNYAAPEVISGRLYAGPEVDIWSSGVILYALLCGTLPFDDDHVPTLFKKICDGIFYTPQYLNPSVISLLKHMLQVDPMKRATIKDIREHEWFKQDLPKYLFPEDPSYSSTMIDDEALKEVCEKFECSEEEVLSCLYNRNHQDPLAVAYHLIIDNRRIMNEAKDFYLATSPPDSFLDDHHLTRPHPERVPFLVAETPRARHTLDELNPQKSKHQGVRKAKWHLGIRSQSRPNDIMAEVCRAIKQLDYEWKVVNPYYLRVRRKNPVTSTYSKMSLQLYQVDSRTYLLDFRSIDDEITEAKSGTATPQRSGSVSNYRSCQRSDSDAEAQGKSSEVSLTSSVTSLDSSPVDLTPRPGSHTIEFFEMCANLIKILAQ
T2 sequence (O43741 whole entry, the tested form may be a part): as the sequence (O43741 whole entry, the tested form may be a part) above
T2 sequence (Q9UGI9 whole entry partner, the tested form may be a part): as the sequence (Q9UGI9 whole entry partner, the tested form may be a part) above
Source text: as §1, §2, §3

[3] = test system: HEK293T cells; experiment: Immunoblot of AMPK signalling in HEK293T cells; assay type: cell-based; details: 2.5 µM, 1 h
Method: To evaluate the efficacy of MSG011 in cellulo, we incubated mouse primary hepatocytes with 2.5 µM MSG011 for 60 min and tracked changes in phosphorylation of AMPK α-Thr172 (marker of activation) and the AMPK substrate acetyl-CoA carboxylase (ACC) Ser79 (AMPK signalling marker).
HEK293T/17, HEK293T, COS7, HeLa and PC3 cells (ATCC) were maintained in Dulbecco's Modified Eagle's medium (DMEM; Sigma–Aldrich) supplemented with 10% fetal bovine serum (FBS; Assay Matrix) at 37°C and 5% CO2. Primary hepatocytes from wild type mice were prepared using the collagenase perfusion method and cultured as described previously. Cultures were incubated with fresh DMEM (no FBS) for 2 h prior to 1 h treatment with MSG011 (dissolved in DMSO) or phenformin (dissolved in H2O). Adherent HEK293T/17 cells at ∼50% confluency were triply transfected with AMPK α1 (pcDNA3.1 vector), β1 (COOH-terminal MYC fusion, pcDNA3.1 vector) and WT γ1 or γ1-R299G mutant (NH2-terminal HA fusion, pMT2 vector) in the presence of FuGENE HD transfection reagent (Promega) as per the manufacturers protocol. […]
All samples were separated on 12% SDS–PAGE gels and transferred to an Immobilon-FL PVDF membrane (Merck Millipore). […] Immunoblots were visualised on the Odyssey Infrared Imaging System (LI-COR Biosciences) and immunoreactive bands analysed and quantified using Image Studio Software (LI-COR Biosciences).

fold AMPK activation relative to vehicle [1]: > 2.2 fold
fold AMPK activation relative to vehicle [2]: > 2.2 fold
SMILES: CC(=O)NC1CC=C(c2ccc(-c3nc4nc(Oc5ccc(C)c(C(=O)O)c5)[nH]c4cc3Cl)cc2)CC1 (stereo not shown) [MSG011, 5-((5-(4′-Acetamido-2′,3′,4′,5′-tetrahydro-[1,1′-biphenyl]-4-yl)-6-chloro-1H-imidazo[4,5-b]pyridin-2-yl)oxy)-2-methylbenzoic acid]
AMPK signalling (phosphorylation of ACC-Ser79 and raptor-Ser792) [3]: at levels comparable to extreme energy stress
α-Thr172 phosphorylation [3]: independent of changes to α-Thr172 phosphorylation
